Literature values in US20230190793A1, “Pharmaceutical Preparation for Use in the Treatment of Systemic Inflammatory Response Syndrome (SIRS)” (priority 2020, published 2023).

| Compound | Acid dissociation constant as pKa at 298 K |
| --- | --- |
| [O-][Cl+2]([O-])O [chloric acid] | 0 |
| OCl [hypochlorous acid] | 7.25 |
| peroxochloric acid | approx. 6.2 |
